This note sets out measurements from the OligoGym collection.

“And” between values parts separate entries of the source, which are not always exact repeats. Equal values may be shown once. HELM strings list units from the 5' end as sugar, base in round brackets, then linkage (d deoxyribose, r ribose, m 2'-O-methyl, p phosphodiester). Methylation of C is not given here. [moe] = 2'-O-(2-methoxyethyl) (MOE); [cEt] = constrained ethyl (cEt); [sp] = phosphorothioate linkage

This data set addresses HBV. The settings on record: ASO.

Regarding “RNA1{[moe](G)[sp].[moe](A)[sp].[moe](G)[sp].d(G)[sp].d(T)[sp].d(G)[sp].d(A)[sp].d(A)[sp].d(G)[sp].d(C)[sp].d(G)[sp].d(A)[sp].[moe](A)[sp].[moe](G)[sp].[moe](T)[sp].[moe](G)[sp].[moe](C)}$$$$V2.0”, the target mRNA inhibition (HepG2, 0.07 µM) is 81% and 71%.

On to “RNA1{[moe](A)[sp].[moe](A)[sp].[moe](G)[sp].[moe](C)[sp].[moe](G)[sp].[moe](A)[sp].d(A)[sp].d(G)[sp].d(T)[sp].d(G)[sp].d(C)[sp].d(A)[sp].d(C)[sp].d(A)[sp].d(C)[sp].[moe](G)[sp].[moe](G)}$$$$V2.0”, for which the target mRNA inhibition runs as follows: (HepG2, 0.0092593 µM) 20%; (HepG2, 0.0277778 µM) 36%; (HepG2, 0.07 µM) 92% and 73%; (HepG2, 0.0833333 µM) 54%; (HepG2, 0.25 µM) 76%.

With “RNA1{[moe](G)[sp].[moe](T)[sp].[moe](G)[sp].d(C)[sp].d(A)[sp].d(G)[sp].d(A)[sp].d(G)[sp].d(G)[sp].d(T)[sp].d(G)[sp].d(A)[sp].d(A)[sp].[cEt](G)[sp].[cEt](C)[sp].[cEt](G)}$$$$V2.0”, the target mRNA inhibition (HepG2, 0.07 µM) was 78% and 74%.

Consider “RNA1{[moe](C)[sp].[cEt](T)[sp].d(G)[sp].d(A)[sp].d(A)[sp].d(C)[sp].d(A)[sp].d(A)[sp].d(A)[sp].d(T)[sp].d(G)[sp].d(G)[sp].[cEt](C)[sp].[moe](A)[sp].[cEt](C)[sp].[moe](T)}$$$$V2.0”, for which the target mRNA inhibition (HepG2, 0.07 µM) was 58% and 71%.

In the case of “RNA1{[moe](A)[sp].[moe](C)[sp].[moe](G)[sp].d(T)[sp].d(G)[sp].d(C)[sp].d(A)[sp].d(G)[sp].d(A)[sp].d(G)[sp].d(G)[sp].d(T)[sp].[moe](G)[sp].[moe](A)[sp].[moe](A)[sp].[moe](G)[sp].[moe](C)}$$$$V2.0”, the target mRNA inhibition (HepG2, 0.07 µM) was 79% and 72%.

With “RNA1{[moe](C)[sp].[moe](G)[sp].[moe](A)[sp].[moe](A)[sp].[moe](C)[sp].[moe](C)[sp].d(A)[sp].d(C)[sp].d(T)[sp].d(G)[sp].d(A)[sp].d(A)[sp].d(C)[sp].d(A)[sp].d(A)[sp].[moe](A)[sp].[moe](T)}$$$$V2.0”, the target mRNA inhibition (HepG2, 0.07 µM) is 0% and 20%.

Regarding “RNA1{[moe](C)[sp].[moe](C)[sp].[moe](A)[sp].[moe](A)[sp].[moe](T)[sp].d(T)[sp].d(T)[sp].d(A)[sp].d(T)[sp].d(G)[sp].d(C)[sp].d(C)[sp].d(T)[sp].d(A)[sp].[moe](C)[sp].[moe](A)[sp].[moe](G)}$$$$V2.0”, under “HepG2, 0.07 µM”, the target mRNA inhibition is 25% and 9%.

On to “RNA1{[moe](A)[sp].[moe](G)[sp].d(G)[sp].d(T)[sp].d(G)[sp].d(A)[sp].d(A)[sp].d(G)[sp].d(C)[sp].d(G)[sp].d(A)[sp].[moe](A)[sp].[moe](G)[sp].[moe](T)[sp].[moe](G)[sp].[moe](C)[sp].[moe](A)}$$$$V2.0”, for which the target mRNA inhibition (HepG2, 0.07 µM) was 72% and 69%.

On to “RNA1{[moe](T)[sp].[moe](G)[sp].[moe](A)[sp].[moe](G)[sp].d(G)[sp].d(C)[sp].d(A)[sp].d(T)[sp].d(A)[sp].d(G)[sp].d(C)[sp].d(A)[sp].d(G)[sp].[moe](C)[sp].[moe](A)[sp].[moe](G)[sp].[moe](G)}$$$$V2.0”, for which, for the setting “HepG2, 0.07 µM”, the target mRNA inhibition is 38% and 40%.

As for “RNA1{[moe](A)[sp].[cEt](C)[sp].[cEt](A)[sp].d(A)[sp].d(A)[sp].d(T)[sp].d(G)[sp].d(G)[sp].d(C)[sp].d(A)[sp].d(C)[sp].d(T)[sp].d(A)[sp].[cEt](G)[sp].[cEt](T)[sp].[moe](A)}$$$$V2.0”, for the setting “HepG2, 0.07 µM”, the target mRNA inhibition is 67% and 61%.

With “RNA1{[moe](A)[sp].[moe](C)[sp].[moe](T)[sp].d(A)[sp].d(G)[sp].d(T)[sp].d(A)[sp].d(A)[sp].d(A)[sp].d(C)[sp].d(T)[sp].d(G)[sp].[moe](A)[sp].[moe](G)[sp].[moe](C)[sp].[moe](C)}$$$$V2.0”, the target mRNA inhibition (HepG2, 0.07 µM) is 64% and 69%.

As for “RNA1{[moe](G)[sp].[cEt](A)[sp].[cEt](G)[sp].d(T)[sp].d(T)[sp].d(C)[sp].d(C)[sp].d(G)[sp].d(C)[sp].d(A)[sp].d(G)[sp].d(T)[sp].d(A)[sp].[cEt](T)[sp].[cEt](G)[sp].[moe](G)}$$$$V2.0”, the target mRNA inhibition (HepG2, 0.07 µM) was 83% and 76%.

In the case of “RNA1{[moe](A)[sp].[moe](C)[sp].[moe](G)[sp].[moe](T)[sp].[moe](G)[sp].[moe](C)[sp].d(A)[sp].d(G)[sp].d(A)[sp].d(G)[sp].d(G)[sp].d(T)[sp].d(G)[sp].d(A)[sp].d(A)[sp].[moe](G)[sp].[moe](C)}$$$$V2.0”, where the note is “HepG2, 0.07 µM”, the target mRNA inhibition is 78% and 58%.

Take “RNA1{[moe](G)[sp].[cEt](G)[sp].[cEt](A)[sp].d(G)[sp].d(T)[sp].d(T)[sp].d(C)[sp].d(C)[sp].d(G)[sp].d(C)[sp].d(A)[sp].d(G)[sp].d(T)[sp].[cEt](A)[sp].[cEt](T)[sp].[moe](G)}$$$$V2.0”: the target mRNA inhibition reads like this: (HepG2, 0.0092593 µM) 13%; (HepG2, 0.0277778 µM) 42%; (HepG2, 0.07 µM) 90% and 76%; (HepG2, 0.0833333 µM) 74%; (HepG2, 0.25 µM) 89%.

For the substance “RNA1{[moe](T)[sp].[moe](A)[sp].d(T)[sp].d(G)[sp].d(C)[sp].d(C)[sp].d(T)[sp].d(A)[sp].d(C)[sp].d(A)[sp].d(G)[sp].[moe](C)[sp].[moe](C)[sp].[moe](T)[sp].[moe](C)[sp].[moe](C)}$$$$V2.0”, for the setting “HepG2, 0.07 µM”, the target mRNA inhibition was 54% and 55%.

On to “RNA1{[moe](A)[sp].[moe](C)[sp].d(C)[sp].d(A)[sp].d(A)[sp].d(T)[sp].d(T)[sp].d(T)[sp].d(A)[sp].d(T)[sp].d(G)[sp].[moe](C)[sp].[moe](C)[sp].[moe](T)[sp].[moe](A)[sp].[moe](C)[sp].[moe](A)}$$$$V2.0”, for which the target mRNA inhibition (HepG2, 0.07 µM) was 54% and 47%.

For the substance “RNA1{[moe](C)[sp].[cEt](G)[sp].[cEt](G)[sp].d(G)[sp].d(C)[sp].d(A)[sp].d(A)[sp].d(C)[sp].d(A)[sp].d(T)[sp].d(A)[sp].d(C)[sp].d(C)[sp].[cEt](T)[sp].[cEt](T)[sp].[moe](G)}$$$$V2.0”, the target mRNA inhibition (HepG2, 0.07 µM) is 61% and 63%.

For “RNA1{[moe](T)[sp].[moe](G)[sp].[moe](A)[sp].[moe](A)[sp].d(G)[sp].d(C)[sp].d(G)[sp].d(A)[sp].d(A)[sp].d(G)[sp].d(T)[sp].d(G)[sp].d(C)[sp].[moe](A)[sp].[moe](C)[sp].[moe](A)[sp].[moe](C)}$$$$V2.0”, where the note is “HepG2, 0.07 µM”, the target mRNA inhibition was 62% and 51%.

As to “RNA1{[moe](A)[sp].[cEt](A)[sp].[moe](G)[sp].[cEt](C)[sp].d(G)[sp].d(A)[sp].d(A)[sp].d(G)[sp].d(T)[sp].d(G)[sp].d(C)[sp].d(A)[sp].d(C)[sp].[moe](A)[sp].[moe](C)[sp].[moe](G)[sp].[moe](G)}$$$$V2.0”, the target mRNA inhibition by setting is: (HepG2, 0.009375 µM) 29%; (HepG2, 0.01875 µM) 30%; (HepG2, 0.0375 µM) 41%; (HepG2, 0.075 µM) 71%; (HepG2, 0.15 µM) 86%; (HepG2, 0.3 µM) 88%.

Consider “RNA1{[moe](G)[sp].[moe](A)[sp].[moe](T)[sp].[moe](G)[sp].[moe](A)[sp].d(G)[sp].d(G)[sp].d(C)[sp].d(A)[sp].d(T)[sp].d(A)[sp].d(G)[sp].d(C)[sp].d(A)[sp].[moe](G)[sp].[moe](C)[sp].[moe](A)}$$$$V2.0”, for which the target mRNA inhibition (HepG2, 0.07 µM) was 46% and 21%.

As for “RNA1{[moe](A)[sp].[moe](A)[sp].[moe](T)[sp].d(T)[sp].d(T)[sp].d(A)[sp].d(T)[sp].d(G)[sp].d(C)[sp].d(C)[sp].d(T)[sp].d(A)[sp].[moe](C)[sp].[moe](A)[sp].[moe](G)[sp].[moe](C)[sp].[moe](C)}$$$$V2.0”, the target mRNA inhibition (HepG2, 0.07 µM) is 56% and 39%.

With “RNA1{[moe](A)[sp].[moe](T)[sp].[moe](G)[sp].[moe](A)[sp].d(G)[sp].d(G)[sp].d(C)[sp].d(A)[sp].d(T)[sp].d(A)[sp].d(G)[sp].d(C)[sp].d(A)[sp].[moe](G)[sp].[moe](C)[sp].[moe](A)[sp].[moe](G)}$$$$V2.0”, for the setting “HepG2, 0.07 µM”, the target mRNA inhibition is 0%.

For the substance “RNA1{[moe](T)[sp].[moe](G)[sp].[moe](A)[sp].d(G)[sp].d(G)[sp].d(C)[sp].d(A)[sp].d(T)[sp].d(A)[sp].d(G)[sp].d(C)[sp].d(A)[sp].d(G)[sp].[cEt](C)[sp].[cEt](A)[sp].[cEt](G)}$$$$V2.0”, where the note is “HepG2, 0.07 µM”, the target mRNA inhibition is 59% and 61%.

In the case of “RNA1{[moe](G)[sp].[moe](A)[sp].[moe](A)[sp].d(G)[sp].d(T)[sp].d(C)[sp].d(C)[sp].d(A)[sp].d(C)[sp].d(C)[sp].d(A)[sp].d(C)[sp].[moe](G)[sp].[moe](A)[sp].[moe](G)[sp].[moe](T)[sp].[moe](C)}$$$$V2.0”, the target mRNA inhibition (HepG2, 0.07 µM) was 33% and 23%.

For the substance “RNA1{[moe](A)[sp].[cEt](A)[sp].d(C)[sp].d(T)[sp].d(G)[sp].d(G)[sp].d(A)[sp].d(G)[sp].d(C)[sp].d(C)[sp].d(A)[sp].d(C)[sp].[cEt](C)[sp].[moe](A)[sp].[cEt](G)[sp].[moe](C)}$$$$V2.0”, where the note is “HepG2, 0.07 µM”, the target mRNA inhibition is 65% and 53%.

With “RNA1{[moe](C)[sp].[moe](T)[sp].[moe](G)[sp].[moe](G)[sp].[moe](A)[sp].d(G)[sp].d(C)[sp].d(C)[sp].d(A)[sp].d(C)[sp].d(C)[sp].d(A)[sp].d(G)[sp].d(C)[sp].[moe](A)[sp].[moe](G)[sp].[moe](G)}$$$$V2.0”, the target mRNA inhibition (HepG2, 0.07 µM) is 42% and 44%.

As to “RNA1{[moe](A)[sp].[moe](A)[sp].[moe](T)[sp].[moe](T)[sp].d(T)[sp].d(A)[sp].d(T)[sp].d(G)[sp].d(C)[sp].d(C)[sp].d(T)[sp].d(A)[sp].d(C)[sp].[moe](A)[sp].[moe](G)[sp].[moe](C)[sp].[moe](C)}$$$$V2.0”, under “HepG2, 0.07 µM”, the target mRNA inhibition is 40% and 36%.

For “RNA1{[moe](A)[sp].[moe](T)[sp].[moe](T)[sp].[moe](T)[sp].d(A)[sp].d(T)[sp].d(G)[sp].d(C)[sp].d(C)[sp].d(T)[sp].d(A)[sp].d(C)[sp].d(A)[sp].[moe](G)[sp].[moe](C)[sp].[moe](C)}$$$$V2.0”, for the setting “HepG2, 0.07 µM”, the target mRNA inhibition was 52% and 49%.
